Reference: paper PMC9576799, “Discovery of small molecule inhibitors that effectively disrupt IQGAP1-Cdc42 interaction in breast cancer cells” (Scientific Reports, 2022)

Tests used:
MCF7-siIQ8 cells = test: CellTiter-Glo cell viability assay, IQGAP1 knockdown MCF7; assay type: cell-based; conditions: Homo sapiens
Method: Selected hit compounds were tested in CellTiterGlo cell viability assays to determine their cytotoxic effect on IQGAP1 knockout and control MCF7 cells. Prior to the assay, we assessed cell proliferation to keep both cell lines at similar exponential growth rates within 80 h after plating. For this purpose, the cells were plated onto 384-well clear bottom black plates (Perkin Elmer, Ultra) at various cell densities (between 625 and 10,000 cells/50µL/well), spun down for 15 s, and placed into Incucyte SX5 (Essen BioScience) for automated bright-field channel reading every 4 h. […] For the cytotoxicity assays, cells were harvested with 0.05% trypsin, spun down at 125xg for 5 min, re-suspended in fresh DMEM supplemented with 5% (v/v) FBS, and seeded into 1536-well white solid bottom tissue culture-treated plates (Greiner One, #789173-F) at 600 cells/5µL/well for knockout cells and 300 cells/5µL/well for control cells using a Multidrop Combi dispenser (Thermo Fisher Scientific Inc.). […]
Plates and reagents were equilibrated to room temperature and then 5 µL/well of CellTiter Glo (Promega, #G7570) reagent was dispensed with a Multidrop Combi dispenser to the assay plates. After incubation for 10 min at ambient temperature, the luminescence signal was read with a ViewLux instrument (Perkin Elmer) with one second exposure. […]

[1] = system: filopodia in MDA-MB-231 cells; test: Filopodia quantification by confocal microscopy (FiloQuant); assay type: cell-based, human; conditions: 50 μM 2 h, EGF-stimulated
Method: MDA-MB231 cells were cultured in 24-well plates containing glass coverslips. When 60% confluent, cells were serum starved for 16 h, preincubated with 50 μM compound NCGC00131308 for 2 h, then incubated with 100 ng/mL epidermal growth factor (EGF) or vehicle for 10 min. Cells were fixed with 4% PFA and stained with Alexa Fluor 488 Phalloidin (Invitrogen™#A12379) and Hoechst 33342 (BD Biosciences #561908) to visualize F-actin and DNA, respectively. Coverslips were mounted with ProLong glass antifade mounting medium (Invitrogen), then imaged with a Zeiss LSM880 confocal microscope using a 63× objective lens. Cells and filopodia were segmented using FIJI/ImageJ[49]. Individual filopodia were segmented using the FiloQuant FIJI plugin[50]. Cells were segmented by Voronoi tessellation using Hoechst 33342 stained nuclei as seed points. The segmented images were quantified using the scikit-image Python package. The following geometric and spatial parameters of the filopodia were quantified: (1) the branch length of each filopodial segment, (2) cumulative area of each segment, (3) eccentricity, defined as the […], and (4) the number of filopodial segments per unit exposed cell membrane. Further data handling and plotting were done using the tidyverse R package. At least 200 cells were analyzed for each condition.

Cc1cccc(NC(=O)c2c(NC(=O)C(F)(F)F)sc3c2CCCCC3)c1 [NCGC00098561]
Emax (MCF7-siIQ8 cells; MCF7, 72 h, read-out: cytotoxicity efficacy): ~100%
IC50 (MCF7-siIQ8 cells; IQGAP1 knockdown MCF7-siIQ8 cells, 72 h, read-out: cytotoxicity EC50): 2240 nM

CCN1CCN(c2ncc3c(n2)CCN(Cc2cc(Br)cs2)C3)CC1 [NCGC00131308]
filopodia area [1]: significantly decreased
filopodia length [1]: significantly decreased
filopodia shape (eccentricity) [1]: reduced eccentricity
number of filopodia per cell [1]: significantly decreased
